Data from patent US20260176320A1, “MODULATORS OF G-PROTEIN COUPLED RECEPTORS” (priority 2018, published 2026).
Where two headings read alike, the source gives them in different places.

Columns and labels:
Assay type in all cases: cell-based
GLP-1R [1] = target: T1, GLP-1R (Homo sapiens, UniProt P43220); assay: HitHunter cAMP assay (GLP-1R); conditions: cAMP; for EC50: EC50 GLP-1R/nM; for Emax: read-out: (Emax) GLP-1R
In short: (§1)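 Suspension cells (10,000/well) in HBSS with 10 mM HEPES, 625 μM IBMX, 0.2% BSA exposed to 22-point 2-fold agonist series in duplicate for 30 min at room temperature. cAMP measured by antibody immunocompetition with overnight development, luminescence read-out.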

GIP-R = target: T2, GIP-R (Homo sapiens, UniProt P48546); assay: HitHunter cAMP assay (GIP-R); conditions: cAMP; for EC50: EC50 GIP-R/nM; for Emax: read-out: (Emax) GIP-R
T2 sequence (P48546 22-466): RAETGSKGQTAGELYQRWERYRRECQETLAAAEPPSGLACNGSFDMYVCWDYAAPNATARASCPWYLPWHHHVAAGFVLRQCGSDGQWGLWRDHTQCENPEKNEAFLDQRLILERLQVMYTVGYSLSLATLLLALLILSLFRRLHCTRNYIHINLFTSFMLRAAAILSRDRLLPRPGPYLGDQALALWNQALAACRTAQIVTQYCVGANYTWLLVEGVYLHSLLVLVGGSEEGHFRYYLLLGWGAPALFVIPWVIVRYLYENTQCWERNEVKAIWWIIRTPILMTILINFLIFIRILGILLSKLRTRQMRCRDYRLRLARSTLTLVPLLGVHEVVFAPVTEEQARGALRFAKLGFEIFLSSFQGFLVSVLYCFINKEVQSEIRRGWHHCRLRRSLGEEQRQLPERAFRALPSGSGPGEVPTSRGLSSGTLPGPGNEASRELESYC
In short: as §1

GLP-1R [2] = target: T1, GLP-1R; assay: PathHunter β-arrestin assay
In short: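 Cells (5,000/well) plated overnight, then exposed to a 22-point 2-fold agonist dilution series in medium with 0.2% BSA for 90 min at 37 °C, 5% CO2. PathHunter detection reagent added; after 3 h at room temperature in the dark, luminescence read.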

T1 sequence (P43220 24-463): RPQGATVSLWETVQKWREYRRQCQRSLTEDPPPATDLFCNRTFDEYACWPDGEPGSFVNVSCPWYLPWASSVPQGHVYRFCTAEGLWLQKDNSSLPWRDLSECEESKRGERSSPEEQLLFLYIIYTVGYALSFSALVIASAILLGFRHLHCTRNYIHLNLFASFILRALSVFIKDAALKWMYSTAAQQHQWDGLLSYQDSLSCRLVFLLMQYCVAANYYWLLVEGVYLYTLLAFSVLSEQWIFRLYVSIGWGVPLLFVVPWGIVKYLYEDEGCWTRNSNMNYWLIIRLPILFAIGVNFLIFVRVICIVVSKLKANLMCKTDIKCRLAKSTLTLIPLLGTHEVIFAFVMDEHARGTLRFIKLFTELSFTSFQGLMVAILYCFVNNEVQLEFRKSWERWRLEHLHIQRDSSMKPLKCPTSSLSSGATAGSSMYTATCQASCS

CCCCCCCCCCCCCCCC(=O)N[C@@H](CCC(=O)NCCCC[C@H](NC(=O)[C@H](CO)NC(=O)[C@@H]1CCCN1C(=O)[C@@H]1CCCN1C(=O)[C@@H]1CCCN1C(=O)[C@H](C)NC(=O)CNC(=O)[C@H](CO)NC(=O)[C@H](CO)NC(=O)[C@@H]1CCCN1C(=O)CNC(=O)CNC(=O)[C@H](C)NC(=O)[C@H](CC(C)C)NC(=O)[C@H](CC(C)C)NC(=O)[C@H](Cc1c[nH]c2ccccc12)NC(=O)[C@H](CC(N)=O)NC(=O)[C@@H](NC(=O)[C@H](Cc1ccccc1)NC(=O)[C@H](CCC(=O)O)NC(=O)C(C)(C)NC(=O)[C@H](C)NC(=O)[C@H](C)NC(=O)[C@H](CCC(N)=O)NC(=O)[C@H](CCCCN)NC(=O)[C@H](CC(=O)O)NC(=O)[C@H](CC(C)C)NC(=O)[C@H](Cc1ccc(O)cc1)NC(=O)[C@@H](NC(=O)[C@H](CO)NC(=O)[C@H](Cc1ccc(O)cc1)NC(=O)[C@H](CC(=O)O)NC(=O)[C@H](CO)NC(=O)[C@@H](NC(=O)[C@H](Cc1ccccc1)NC(=O)[C@@H](NC(=O)CNC(=O)[C@H](CCC(=O)O)NC(=O)CSCC(=O)NCCN1C(=O)CC[C@@H]1CO)[C@@H](C)O)[C@@H](C)O)[C@@H](C)CC)C(C)C)C(N)=O)C(=O)O [Compound 43]
EC50 (GLP-1R [1]; Table 3): 0.1 to 1 nM
EC50 (GLP-1R [1]; Table 3A): 0.1 to 1 nM
Emax (GLP-1R [1]; Table 3): 93 to 97%
Emax (GLP-1R [1]; Table 3A): 93 to 97%
EC50 (GIP-R; Table 3): 1 to 10 nM
EC50 (GIP-R; Table 3A): 1 to 10 nM
Emax (GIP-R; Table 3): 60 to 73%
Emax (GIP-R; Table 3A): 60 to 73%
EC50 (GLP-1R [2]): > 1000 nM

CCCCCCCCCCCCCCCC(=O)N[C@@H](CCC(=O)NCCCC[C@H](NC(=O)[C@H](CO)NC(=O)[C@@H]1CCCN1C(=O)[C@@H]1CCCN1C(=O)[C@@H]1CCCN1C(=O)[C@H](C)NC(=O)CNC(=O)[C@H](CO)NC(=O)[C@H](CO)NC(=O)[C@@H]1CCCN1C(=O)CNC(=O)CNC(=O)[C@H](C)NC(=O)[C@H](CC(C)C)NC(=O)[C@H](CC(C)C)NC(=O)[C@H](Cc1c[nH]c2ccccc12)NC(=O)[C@H](CC(N)=O)NC(=O)[C@@H](NC(=O)[C@H](Cc1ccccc1)NC(=O)[C@H](CCC(=O)O)NC(=O)C(C)(C)NC(=O)[C@H](C)NC(=O)[C@H](C)NC(=O)[C@H](CCC(N)=O)NC(=O)[C@H](CCCCN)NC(=O)[C@H](CC(=O)O)NC(=O)[C@H](CC(C)C)NC(=O)[C@H](Cc1ccc(O)cc1)NC(=O)[C@@H](NC(=O)[C@H](CO)NC(=O)[C@H](Cc1ccc(O)cc1)NC(=O)[C@H](CC(=O)O)NC(=O)[C@H](CO)NC(=O)[C@@H](NC(=O)[C@H](Cc1ccccc1)NC(=O)[C@@H](NC(=O)CNC(=O)[C@H](CCC(=O)O)NC(=O)CSCC(=O)NCCN1C(=O)CC[C@H]1CO)[C@@H](C)O)[C@@H](C)O)[C@@H](C)CC)C(C)C)C(N)=O)C(=O)O [Compound 44]
EC50 (GLP-1R [1]; Table 3): 0.1 to 1 nM
EC50 (GLP-1R [1]; Table 3A): 0.1 to 1 nM
Emax (GLP-1R [1]; Table 3): 97 to 99%
Emax (GLP-1R [1]; Table 3A): 97 to 99%
EC50 (GIP-R; Table 3): 1 to 10 nM
EC50 (GIP-R; Table 3A): 1 to 10 nM
Emax (GIP-R; Table 3): 54 to 67%
Emax (GIP-R; Table 3A): 54 to 67%
EC50 (GLP-1R [2]): > 1000 nM
